IC50, EC50 and AC50 data for two compounds are collected here from ChEMBL document CHEMBL1201862, “PubChem BioAssay data set” (2004).

Test [1] deals with T1, Delta-type opioid receptor (Homo sapiens, UniProt P41143). Kind of test: HTS Image-Based Screen for Antagonists of the DOR Receptor. [Related pubchem assays (depositor defined):AID1777, AID1785, AID1786, AID2133]. In kind it is functional.
A short description of test [2]: inhibitors of firefly luciferase expression or activity, dose response, H4 neuroglioma cells, luminescence (AID 1990). The format is functional, cell-based.
A further test addresses Mu-type opioid receptor (Homo sapiens, UniProt P35372). Kind of test: HTS Image-Based Screen for Agonists of the MOR Receptor. [Related pubchem assays (depositor defined):AID1777, AID1785, AID1786, AID2133]. In kind it is functional.
The target in test [3] is T1, Delta-type opioid receptor. In words: HTS Image-Based Screen for Agonists of the DOR Receptor. [Related pubchem assays (depositor defined):AID1777, AID1786, AID2133]. The format is functional.
A short description of test [4]: Luminescence Cell-Based Dose Response HTS to Identify Inhibitors of 5'UTR Stem-Loop Driven Prion Protein mRNA Translation in H4 Neuroglioblastoma Cells. [Related pubchem assays: 1827 (Project Summary), 1813 (Primary HTS)]. In kind it is functional.
Test [5] in a line: inhibitors of SNCA 5'UTR-driven reporter translation, confirmation, H4 neuroglioma cells, luminescence (AID 1988). In kind it is functional, cell-based.
Test [6] in a line: inhibitors of intracellular T. cruzi replication, confirmation, NIH3T3 host cells, beta-gal luminescence (AID 2044).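 Also: intracellular parasites grown in NIH/3T3 mouse fibroblasts as host cells; luminescent beta-galactosidase reporter signal from transgenic T. cruzi replicating inside host cells; inhibitors lower the luminescence signal.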 The format is functional, cell-based.
For test [7], the target named is T2, Kappa-type opioid receptor (Homo sapiens, UniProt P41145). The format is functional.
Test [8] can be described thus: cytotoxicity toward NIH3T3 fibroblasts, dose response, counter-screen, cell-based, ATP luminescence, mouse fibroblasts (AID 2010).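 Also: cells exposed to compound for about 90 hours before reading.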 The format is functional. A general note: Counterscreens check selectivity or assay interference.
A further test addresses Beta-galactosidase (Escherichia coli, UniProt Q8VNN2). In kind it is functional.
Test [9] concerns the target T3, Sphingosine 1-phosphate receptor 4 (Homo sapiens, UniProt O95977).
T3 sequence (O95977 whole entry): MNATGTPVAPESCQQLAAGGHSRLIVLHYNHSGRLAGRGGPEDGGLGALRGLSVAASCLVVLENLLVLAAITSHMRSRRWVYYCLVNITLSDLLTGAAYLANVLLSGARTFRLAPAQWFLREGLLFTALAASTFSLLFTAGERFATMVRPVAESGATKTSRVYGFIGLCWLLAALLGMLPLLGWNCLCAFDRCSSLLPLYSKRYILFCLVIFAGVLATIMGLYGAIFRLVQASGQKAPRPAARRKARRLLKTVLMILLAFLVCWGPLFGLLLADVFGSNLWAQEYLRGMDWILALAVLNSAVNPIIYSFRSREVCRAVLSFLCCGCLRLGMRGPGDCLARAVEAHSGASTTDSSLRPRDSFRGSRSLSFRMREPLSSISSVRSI
In words: Fluorescence dose response cell-based high throughput screening assay for antagonists of the Sphingosine 1-Phosphate Receptor 4 (S1P4). [Related pubchem assays: 1524 (Confirmation in triplicates.), 1510 (Primary screen.)]. The format is functional.

In test [10] the target is T2, Kappa-type opioid receptor. In kind it is functional. This is another data set of the same source.
The target in test [11] is Sphingosine 1-phosphate receptor 1 (Homo sapiens, UniProt P21453). The format is functional.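 Also: Tango beta-arrestin reporter U2OS cells stimulated with S1P near its EC80; inhibitor potency meaning antagonism of receptor activation by the natural agonist.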
The target of test [12] is T4, Microphthalmia-associated transcription factor (Homo sapiens, UniProt O75030).
T4 sequence (O75030 whole entry): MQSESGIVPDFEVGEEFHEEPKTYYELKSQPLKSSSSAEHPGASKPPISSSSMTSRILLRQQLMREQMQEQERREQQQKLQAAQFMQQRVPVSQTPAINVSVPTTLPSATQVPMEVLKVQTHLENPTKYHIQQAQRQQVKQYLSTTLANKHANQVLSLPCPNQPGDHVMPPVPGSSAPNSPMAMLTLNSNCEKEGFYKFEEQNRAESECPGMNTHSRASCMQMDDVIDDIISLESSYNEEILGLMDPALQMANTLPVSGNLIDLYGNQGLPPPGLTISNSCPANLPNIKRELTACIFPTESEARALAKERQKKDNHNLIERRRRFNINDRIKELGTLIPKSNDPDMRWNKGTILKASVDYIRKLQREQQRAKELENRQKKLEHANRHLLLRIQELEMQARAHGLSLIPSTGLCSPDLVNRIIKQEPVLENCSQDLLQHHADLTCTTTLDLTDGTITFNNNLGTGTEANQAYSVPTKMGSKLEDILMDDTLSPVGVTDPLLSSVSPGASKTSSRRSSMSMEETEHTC
Kind of test: TRPM1 promoter luciferase signal decrease, dose response, MITF inhibitor project, cell-based, SK-MEL-5, cherry-picked, set 3 (AID 493073).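 Also: SK-MEL-5 melanoma cells with luciferase driven by the MITF target TRPM1 promoter.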 The format is functional.

Test [13] concerns A-375. Kind of test: MITF: Counter assay: A375 proliferation Measured in Cell-Based System Using Plate Reader - 2084-03_Inhibitor_Dose_DryPowder_Activity. [Related pubchem assays (depositor defined):AID488944]. The format is functional. To be noted: Homo sapiens.
In test [14] the test system is A-375. In words: A375 melanoma cell viability reduction, dose response, counter-screen for MITF modulator project, cherry-pick samples, set 2 (AID 540335). The format is functional, cell-based. The note with it: Homo sapiens.
The nature of test [15]: A549 cell cytotoxicity, dose response, cytotoxicity control, plate reader, cherry-pick, antagonist series (AID 743412). The format is functional, cell-based.
The nature of test [16]: HepG2 cell cytotoxicity, dose response, cytotoxicity control, plate reader, cherry-pick, antagonist series (AID 743416). In kind it is functional, cell-based.
Test [17] is described as follows: LGR2 antagonists, dose response, cell-based, HEK293, CRE-luciferase reporter, cherry pick, set 2 (AID 743343).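 Also: transfected cells were stimulated with diluted bursicon conditioned medium after compound addition.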 The format is functional. In general terms: Reporter assays use an easily measured gene product as a stand-in for the process of interest.
Test [18] can be described thus: MC4R antagonists, dose response, counter-screen for LGR2 antagonist project, cell-based, plate reader, cherry pick (AID 743444).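 Also: transfected HEK 293 cells stimulated with alpha-MSH peptide; potency of inhibitors of the alpha-MSH evoked signal.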 The format is functional.
The nature of test [19]: HEK293 cell cytotoxicity, dose response, cytotoxicity control, plate reader, cherry-picked samples (AID 743446). The format is functional, cell-based.
Test [20] concerns the target Protein-arginine deiminase type-4 (Homo sapiens, UniProt Q9UM07). Kind of test: human PAD4 inhibitor potency, dose response, biochemical, fluorescence readout (AID 492970).
The target in test [21] is T5, Replicative DNA helicase DnaB (Mycobacterium tuberculosis, UniProt P9WMR3).
T5 sequence (P9WMR3 whole entry): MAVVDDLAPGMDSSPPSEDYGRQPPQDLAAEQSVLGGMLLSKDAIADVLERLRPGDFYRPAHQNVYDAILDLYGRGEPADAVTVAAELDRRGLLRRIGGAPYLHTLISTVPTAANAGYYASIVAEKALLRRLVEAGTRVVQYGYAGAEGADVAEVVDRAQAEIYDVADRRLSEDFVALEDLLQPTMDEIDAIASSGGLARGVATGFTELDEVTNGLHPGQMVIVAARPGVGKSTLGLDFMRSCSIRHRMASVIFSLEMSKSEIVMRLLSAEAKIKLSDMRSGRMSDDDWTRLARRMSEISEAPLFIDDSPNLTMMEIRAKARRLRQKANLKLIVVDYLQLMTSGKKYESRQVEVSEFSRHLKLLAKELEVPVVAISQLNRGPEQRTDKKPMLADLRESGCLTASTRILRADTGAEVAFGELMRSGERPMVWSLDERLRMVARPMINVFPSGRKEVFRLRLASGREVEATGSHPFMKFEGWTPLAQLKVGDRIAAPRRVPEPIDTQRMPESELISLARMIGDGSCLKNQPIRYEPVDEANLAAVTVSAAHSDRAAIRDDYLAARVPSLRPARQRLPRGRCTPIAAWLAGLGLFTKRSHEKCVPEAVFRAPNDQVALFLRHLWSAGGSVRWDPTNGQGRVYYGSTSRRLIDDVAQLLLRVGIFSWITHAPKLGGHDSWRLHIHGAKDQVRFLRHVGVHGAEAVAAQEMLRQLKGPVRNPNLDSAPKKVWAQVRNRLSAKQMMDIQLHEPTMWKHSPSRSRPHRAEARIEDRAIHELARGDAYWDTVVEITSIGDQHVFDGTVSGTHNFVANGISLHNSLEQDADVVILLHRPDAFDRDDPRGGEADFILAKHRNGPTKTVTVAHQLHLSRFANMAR
Kind of test: DnaB intein splicing inhibitors, dose response, biochemical, cell-free fluorescence (AID 449749). In kind it is functional.

Another test addresses T6, Protein RecA (Mycobacterium tuberculosis, UniProt P9WHJ3).
T6 sequence (P9WHJ3 whole entry): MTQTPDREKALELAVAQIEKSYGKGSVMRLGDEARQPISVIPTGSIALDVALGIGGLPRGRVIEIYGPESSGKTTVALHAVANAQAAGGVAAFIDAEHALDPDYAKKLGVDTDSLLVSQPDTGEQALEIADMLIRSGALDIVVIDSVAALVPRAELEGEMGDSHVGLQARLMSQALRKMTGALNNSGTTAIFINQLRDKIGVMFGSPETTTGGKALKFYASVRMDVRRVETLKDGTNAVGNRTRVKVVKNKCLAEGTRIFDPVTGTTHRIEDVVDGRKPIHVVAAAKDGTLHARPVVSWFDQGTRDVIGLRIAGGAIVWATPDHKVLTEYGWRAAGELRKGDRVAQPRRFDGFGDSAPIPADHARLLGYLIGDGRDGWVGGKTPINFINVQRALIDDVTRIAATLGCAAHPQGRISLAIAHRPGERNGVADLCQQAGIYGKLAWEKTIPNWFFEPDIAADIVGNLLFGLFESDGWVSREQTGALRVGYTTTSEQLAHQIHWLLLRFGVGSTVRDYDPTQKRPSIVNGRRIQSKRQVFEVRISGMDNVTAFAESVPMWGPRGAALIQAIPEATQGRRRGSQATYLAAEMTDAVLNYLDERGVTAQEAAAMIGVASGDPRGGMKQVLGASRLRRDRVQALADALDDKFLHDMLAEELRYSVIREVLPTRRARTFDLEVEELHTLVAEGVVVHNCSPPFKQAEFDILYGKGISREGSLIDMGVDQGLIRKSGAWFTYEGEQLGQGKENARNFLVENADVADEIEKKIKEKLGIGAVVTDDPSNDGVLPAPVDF
In words: Fluorescence Cell-Free Homogeneous Dose Retest to Identify Inhibitors of RecA-Intein Splicing Activity. [Related pubchem assays (depositor defined):AID2097, AID2223, AID489010, AID492950]. In kind it is functional.

The nature of test [22]: Shn3 3'UTR reporter inhibitors, dose response, cell-based, Clone20 osteoblasts, firefly luciferase, cherry-picked (AID 624132).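 Also: firefly luciferase luminescence from reporter carrying the Shn3 3'UTR in osteoblasts.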 In kind it is functional.
A short description of test [23]: HepG2 cell cytotoxicity, dose response, cytotoxicity control for Shn3 inhibitor project, CellTiter-Glo, cherry-picked (AID 624134). The format is functional, cell-based. A general note: In ATP-based viability assays light output follows the ATP content of the culture.
The nature of test [24]: control 3'UTR Renilla luciferase suppression, dose response, counter-screen for Shn3 inhibitor project, cell-based, Clone20-Shn3RL, cherry-picked (AID 624133). In kind it is functional.
The target in another test is T7, Caspase-6 (Homo sapiens, UniProt P55212).
T7 sequence (P55212 whole entry): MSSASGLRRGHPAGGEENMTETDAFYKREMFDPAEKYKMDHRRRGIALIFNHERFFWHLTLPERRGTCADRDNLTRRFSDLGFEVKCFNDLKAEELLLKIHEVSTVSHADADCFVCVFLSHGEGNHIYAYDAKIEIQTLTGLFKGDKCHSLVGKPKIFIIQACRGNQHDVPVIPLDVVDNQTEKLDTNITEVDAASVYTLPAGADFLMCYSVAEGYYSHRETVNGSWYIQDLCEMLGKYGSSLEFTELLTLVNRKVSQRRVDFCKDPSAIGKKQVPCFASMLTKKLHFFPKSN
Kind of test: human caspase-6 inhibitors, dose response, biochemical, VEID-R110 fluorescence, cherry-pick (AID 720632).

Test [25] in a line: HeLa 2N DNA content increase, dose response, cell-based, IC50 (AID 1117349). In kind it is functional.
Test [26] can be described thus: HeLa 4N DNA content increase, dose response, cell-based, IC50 (AID 1117351). The format is functional.

Counter-ions that a name gives are not always drawn. The source made the active and inactive calls.

T2 sequence (P41145 whole entry): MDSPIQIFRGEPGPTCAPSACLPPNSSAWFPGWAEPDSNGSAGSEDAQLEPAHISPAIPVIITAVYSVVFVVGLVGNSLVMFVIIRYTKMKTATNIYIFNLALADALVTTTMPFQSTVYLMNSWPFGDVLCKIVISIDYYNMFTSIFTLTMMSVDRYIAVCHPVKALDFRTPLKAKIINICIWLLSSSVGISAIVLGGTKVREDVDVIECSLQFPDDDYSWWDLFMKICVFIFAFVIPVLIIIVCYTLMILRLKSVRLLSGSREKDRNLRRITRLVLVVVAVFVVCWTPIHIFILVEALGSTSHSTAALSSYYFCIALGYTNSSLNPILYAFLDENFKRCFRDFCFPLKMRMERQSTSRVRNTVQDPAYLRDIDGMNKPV
T1 sequence (P41143 whole entry): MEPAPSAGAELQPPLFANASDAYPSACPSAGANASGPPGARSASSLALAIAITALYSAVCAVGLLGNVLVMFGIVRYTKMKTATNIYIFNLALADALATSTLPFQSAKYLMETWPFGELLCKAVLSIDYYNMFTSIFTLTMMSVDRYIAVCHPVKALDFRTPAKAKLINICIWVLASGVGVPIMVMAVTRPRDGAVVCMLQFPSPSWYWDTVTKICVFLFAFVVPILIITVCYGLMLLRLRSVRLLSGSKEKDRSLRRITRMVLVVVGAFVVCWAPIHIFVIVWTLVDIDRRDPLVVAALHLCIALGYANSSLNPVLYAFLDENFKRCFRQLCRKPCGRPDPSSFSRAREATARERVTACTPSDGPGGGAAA
Chain of Sphingosine 1-phosphate receptor 1 (P21453 whole entry): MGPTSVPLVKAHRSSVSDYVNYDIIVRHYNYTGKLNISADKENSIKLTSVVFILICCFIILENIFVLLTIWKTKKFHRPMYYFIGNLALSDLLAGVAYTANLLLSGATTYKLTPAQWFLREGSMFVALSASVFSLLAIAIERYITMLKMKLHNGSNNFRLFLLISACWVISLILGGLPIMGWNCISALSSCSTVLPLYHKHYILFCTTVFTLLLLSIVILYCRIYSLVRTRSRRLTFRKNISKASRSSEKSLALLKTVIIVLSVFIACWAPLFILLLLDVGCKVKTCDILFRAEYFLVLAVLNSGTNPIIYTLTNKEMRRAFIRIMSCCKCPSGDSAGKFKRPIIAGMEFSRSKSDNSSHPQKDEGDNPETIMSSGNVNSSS
Chain of Beta-galactosidase (Q8VNN2 whole entry): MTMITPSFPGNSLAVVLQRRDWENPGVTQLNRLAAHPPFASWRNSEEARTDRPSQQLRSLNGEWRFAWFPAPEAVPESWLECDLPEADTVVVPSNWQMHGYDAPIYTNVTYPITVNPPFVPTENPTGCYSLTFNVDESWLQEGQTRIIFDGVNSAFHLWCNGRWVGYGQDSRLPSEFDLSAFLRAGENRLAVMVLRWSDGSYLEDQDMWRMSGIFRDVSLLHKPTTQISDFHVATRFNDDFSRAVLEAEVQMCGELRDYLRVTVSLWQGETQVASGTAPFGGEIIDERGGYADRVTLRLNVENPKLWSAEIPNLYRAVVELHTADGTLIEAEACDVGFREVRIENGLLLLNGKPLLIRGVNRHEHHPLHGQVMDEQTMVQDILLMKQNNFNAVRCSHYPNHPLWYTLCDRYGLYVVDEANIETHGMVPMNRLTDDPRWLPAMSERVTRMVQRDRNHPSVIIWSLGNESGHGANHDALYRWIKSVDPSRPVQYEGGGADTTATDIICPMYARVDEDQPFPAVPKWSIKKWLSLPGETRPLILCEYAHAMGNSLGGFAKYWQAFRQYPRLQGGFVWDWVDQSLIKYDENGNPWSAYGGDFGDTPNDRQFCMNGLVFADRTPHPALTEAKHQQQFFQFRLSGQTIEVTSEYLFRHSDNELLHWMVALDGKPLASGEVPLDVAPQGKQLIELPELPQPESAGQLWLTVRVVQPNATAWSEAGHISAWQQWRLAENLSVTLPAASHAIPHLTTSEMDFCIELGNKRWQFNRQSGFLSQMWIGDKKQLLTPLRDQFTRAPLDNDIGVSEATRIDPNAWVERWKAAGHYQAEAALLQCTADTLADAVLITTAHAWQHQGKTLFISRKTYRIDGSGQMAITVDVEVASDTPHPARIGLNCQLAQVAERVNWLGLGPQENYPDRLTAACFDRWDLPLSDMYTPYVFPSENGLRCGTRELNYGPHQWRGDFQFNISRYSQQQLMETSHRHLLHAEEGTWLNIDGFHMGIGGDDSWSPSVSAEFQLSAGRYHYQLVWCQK
Chain of Protein-arginine deiminase type-4 (Q9UM07 whole entry): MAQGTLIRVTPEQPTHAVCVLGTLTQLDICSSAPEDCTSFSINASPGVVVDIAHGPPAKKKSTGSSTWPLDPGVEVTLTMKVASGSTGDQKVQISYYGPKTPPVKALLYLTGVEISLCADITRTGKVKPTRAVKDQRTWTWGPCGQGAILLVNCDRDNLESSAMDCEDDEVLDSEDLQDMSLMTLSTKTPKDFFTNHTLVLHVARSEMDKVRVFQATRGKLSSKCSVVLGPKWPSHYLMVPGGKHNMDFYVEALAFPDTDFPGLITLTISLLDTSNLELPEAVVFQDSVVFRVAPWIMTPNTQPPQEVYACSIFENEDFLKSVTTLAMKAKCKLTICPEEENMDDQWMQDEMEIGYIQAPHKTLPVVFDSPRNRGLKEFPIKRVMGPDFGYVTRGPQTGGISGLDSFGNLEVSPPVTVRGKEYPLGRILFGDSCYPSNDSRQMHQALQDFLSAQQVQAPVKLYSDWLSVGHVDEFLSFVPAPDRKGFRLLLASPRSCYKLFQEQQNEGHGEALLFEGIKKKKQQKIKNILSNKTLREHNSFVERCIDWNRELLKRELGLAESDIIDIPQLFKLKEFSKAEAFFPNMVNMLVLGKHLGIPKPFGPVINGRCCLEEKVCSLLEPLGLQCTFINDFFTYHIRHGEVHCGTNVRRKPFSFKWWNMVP
Chain of Mu-type opioid receptor (P35372 whole entry): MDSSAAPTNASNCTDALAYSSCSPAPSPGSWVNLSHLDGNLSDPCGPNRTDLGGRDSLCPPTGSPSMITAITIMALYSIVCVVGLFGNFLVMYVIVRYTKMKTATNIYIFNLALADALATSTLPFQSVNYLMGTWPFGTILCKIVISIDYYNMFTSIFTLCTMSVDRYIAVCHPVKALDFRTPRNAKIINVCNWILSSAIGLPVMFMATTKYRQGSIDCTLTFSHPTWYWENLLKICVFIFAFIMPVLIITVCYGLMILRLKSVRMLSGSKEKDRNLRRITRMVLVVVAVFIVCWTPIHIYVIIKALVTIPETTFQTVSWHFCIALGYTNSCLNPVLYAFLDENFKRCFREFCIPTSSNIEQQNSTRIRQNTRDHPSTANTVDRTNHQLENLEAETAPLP

A word on the IC50: it is the midpoint of a concentration-inhibition curve. As usually defined, the EC50 is the concentration needed to bring the measured effect to its halfway point. The AC50 is the concentration at which the activity in the assay is half-maximal. For the compound `O=C(Cn1ncc(Cl)c(Cl)c1=O)N1CCc2ccccc21`, the IC50 in test [1] was 14.7 µM (inactive); in [7], 5.51 µM (active); in [9], 1.64 µM (active); in [10], 2.85 µM; in test [11], 5.51 µM (active). Also, the EC50 was 8.12 µM (active) in test [2]; > 32 µM (inactive) on Mu-type opioid receptor; > 32 µM (inactive) in test [3]; 7.57 µM (active) in [4]; > 120 µM (not active) in [5]; 2.46 µM (active) in test [6]. Besides, the EC50 was 4.51 µM (active) in test [8] and > 31.5 µM (inactive) on Beta-galactosidase. Also, the concentration at half-maximal activity (AC50) in test [12] was 6.1 µM (active); in the test with A-375 [13] it was > 35 µM (active); in the test on A-375 [14], > 35 µM (active); in test [15] it was 7.68 µM (active); in test [16], 16.3 µM (active); in [17], 7.11 µM (active). For the same compound, the half-maximal activity concentration (AC50) in test [18] was 8.77 µM (active); in test [19], 4.3 µM (active).
On to `COc1ccc(Cc2nccc3cc(OC)c(OC)cc23)cc1OC` [PAPAVERINE HYDROCHLORIDE], for which the IC50 in test [20] was 39 µM (inactive); in test [25] it was > 10 µM (inactive); in test [26] it was > 10 µM (inactive). Besides, the AC50 was 5.66 µM (active) in test [21]; 2.48 µM (active) in test [22]; 8.06 µM (active) in test [23]; 20.8 µM (active) in [24]; 22 µM (active) on Caspase-6. On Protein RecA, the EC50 is 3.01 µM (active).
